# Test results from US20130023485A1, “PARENTERAL FORMULATIONS OF PEPTIDES FOR THE TREATMENT OF SYSTEMATIC LUPUS ERYTHEMATOSUS” (Teva Pharmaceutical Industries, Ltd., priority 2003, published 2013).
# Tests used:
# [1] = test system: LN cells; assay: IFN-γ secretion by cultured LN cells of immunized and treated mice (ELISA); type: in vivo, BALB/c mice
# Procedure: A group of 20 mice were immunized with 50 μg/mouse of Compound 1 RS. The immunized mice were allocated to five treatment groups as follows: placebo, 25, 50, 100 and 200 μg/mouse of Compound 1 DP (subcutaneous administration). Ten days post immunization and treatment, LN was extracted and single cell suspension was prepared. The in-vitro secretion of IFN-γ and TGF-β by the cultured cells in response to activation with several concentrations of Compound 1 RS was then measured. [table] [table] Mice: 20 female BALB/c mice, supplied by Harlan animals breeding center, Rehovot. Age at immunization (week+days): 10 Average weight of mice included in the experiment: 19.01 gr. The immunization was performed by injecting 100 microliters of the immunization emulsion (50 microliters into each hind footpad). […] Mice were sacrificed by cervical dislocation. LN were extracted from the hind legs and were transferred to a sterile petri dish containing about 5 mL RPMI. The cells were extracted by gentle squeezing of the tissue against a 200 micrometer mesh stainless steel net. The cells were collected and centrifuged at 300 G for 10 minutes at RT. Single cell suspensions were prepared from pooled LN of each experimental group. […] Secretion of IFN-γ and TGF-β, as indication of cellular response, were determined by ELISA of culture media (48 hrs for IFN-γ and 72 hrs for TGF-β).
# [2] = test system: TGF-β secretion by PBL of SLE patients; assay: Up-regulation of TGF-β secretion by PBL stimulated with human 16/6Id mAb (ELISA); type: cell-based
# Procedure: For this purpose, supernatants were removed from cultures of PBL of various SLE patients following 48 hours incubation with the human 16/6Id mAb in the absence or presence of the peptides hCDR1 or hCDR3. TGF-β was determined by ELISA according to the manufacturer's instructions. Briefly, Maxisorb plates (Nunc) were coated with recombinant human TGFβsRII/Fc chimera (R & D Systems) diluted in PBS (100 ng/ml). After blocking, cell supernatants were added. After 18 hours incubation the detecting biotinylated anti-human TGF-β antibody (R & D Systems) was added. The substrate solution used was the TMB Colour Reagent (Helix Diagnostics) and enzyme activity was evaluated by the MRX ELISA reader using the 570 nm and 630 nm filters.
# [3] = test system: SLE subjects; assay: Phase Ib clinical study, multiple s.c. doses, tolerability and safety; type: in vivo, human; conditions: multiple s.c. doses of 0.5, 1 or 2.5 mg in 120 mg Captisol®, 12 injections in 4 weeks
# Procedure: This study is being performed in order to evaluate the safety and tolerability of repeated Compound 1 sc administration to SLE subjects. […] Subjects are monitored on planned visits scheduled at 2, 4, 8 and 12 weeks after start of dosing. Safety and tolerability are evaluated using tests similar to those described in the Phase Ia Clinical Study above.
# [4] = test system: (NZB×NZW)F1 female mice; assay: Lupus symptoms in SLE-prone (NZB×NZW)F1 female mice; type: in vivo, mouse
# Procedure: The same batch of drug substance was used in this study and in the first Phase I clinical trial with Compound 1. The mice were followed for anti-dsDNA antibodies and for proteinuria. When the mice were sacrificed, the intensity of ICD was determined in kidneys.
substance,measurement,setting,value
H-GYYWSWIRQPPGKGEEWIG-OH [Compound 1],Final cytokine (IFN-γ),"[1]; treated 25 μg/M s.c., 5 million cells/well, activation Compound 1 3.125 μg/ml",BQL
same,Final cytokine (IFN-γ),"[1]; treated 25 μg/M s.c., 5 million cells/well, activation Compound 1 6.25 μg/ml",BQL
same,Final cytokine (IFN-γ),"[1]; treated 25 μg/M s.c., 5 million cells/well, activation Compound 1 12.5 μg/ml",41.9 pg/mL
same,Final cytokine (IFN-γ),"[1]; treated 25 μg/M s.c., 5 million cells/well, activation Compound 1 50 μg/ml",104.2 pg/mL
same,Final cytokine (IFN-γ),"[1]; treated 25 μg/M s.c., 5 million cells/well, activation Compound 1 100 μg/ml",185.2 pg/mL
same,Final cytokine (IFN-γ),"[1]; treated 25 μg/M s.c., 5 million cells/well, activation Compound 1 25 μ/ml",70.0 pg/mL
same,Final cytokine (IFN-γ),"[1]; treated 25 μg/M s.c., 5 million cells/well, activation Con A",2995.3 pg/mL
same,Final cytokine (IFN-γ),"[1]; treated 50 μg/M s.c., 2.5 million cells/well, activation Compound 1 3.125 μg/ml",54.1 pg/mL
same,Final cytokine (IFN-γ),"[1]; treated 50 μg/M s.c., 2.5 million cells/well, activation Compound 1 6.25 μg/ml",81.8 pg/mL
same,Final cytokine (IFN-γ),"[1]; treated 50 μg/M s.c., 2.5 million cells/well, activation Compound 1 12.5 μg/ml",123.1 pg/mL
same,Final cytokine (IFN-γ),"[1]; treated 50 μg/M s.c., 2.5 million cells/well, activation Compound 1 50 μg/ml",292.5 pg/mL
same,Final cytokine (IFN-γ),"[1]; treated 50 μg/M s.c., 2.5 million cells/well, activation Compound 1 100 μg/ml",531.8 pg/mL
same,Final cytokine (IFN-γ),"[1]; treated 50 μg/M s.c., 2.5 million cells/well, activation Compound 1 25 μ/ml",215.1 pg/mL
same,Final cytokine (IFN-γ),"[1]; treated 50 μg/M s.c., 2.5 million cells/well, activation Con A",356.2 pg/mL
same,Final cytokine (IFN-γ),"[1]; treated 50 μg/M s.c., 5 million cells/well, activation Compound 1 3.125 μg/ml",76.2 pg/mL
same,Final cytokine (IFN-γ),"[1]; treated 50 μg/M s.c., 5 million cells/well, activation Compound 1 6.25 μg/ml",109.2 pg/mL
same,Final cytokine (IFN-γ),"[1]; treated 50 μg/M s.c., 5 million cells/well, activation Compound 1 12.5 μg/ml",179.5 pg/mL
same,Final cytokine (IFN-γ),"[1]; treated 50 μg/M s.c., 5 million cells/well, activation Compound 1 50 μg/ml",373.4 pg/mL
same,Final cytokine (IFN-γ),"[1]; treated 50 μg/M s.c., 5 million cells/well, activation Compound 1 100 μg/ml",547.0 pg/mL
same,Final cytokine (IFN-γ),"[1]; treated 50 μg/M s.c., 5 million cells/well, activation Compound 1 25 μ/ml",277.9 pg/mL
same,Final cytokine (IFN-γ),"[1]; treated 50 μg/M s.c., 5 million cells/well, activation Con A",4837.0 pg/mL
same,Final cytokine (IFN-γ),"[1]; treated 100 μg/M s.c., 2.5 million cells/well, activation Compound 1 3.125 μg/ml",64.5 pg/mL
same,Final cytokine (IFN-γ),"[1]; treated 100 μg/M s.c., 2.5 million cells/well, activation Compound 1 6.25 μg/ml",116.1 pg/mL
same,Final cytokine (IFN-γ),"[1]; treated 100 μg/M s.c., 2.5 million cells/well, activation Compound 1 12.5 μg/ml",180.9 pg/mL
same,Final cytokine (IFN-γ),"[1]; treated 100 μg/M s.c., 2.5 million cells/well, activation Compound 1 50 μg/ml",518.3 pg/mL
same,Final cytokine (IFN-γ),"[1]; treated 100 μg/M s.c., 2.5 million cells/well, activation Compound 1 100 μg/ml",582.7 pg/mL
same,Final cytokine (IFN-γ),"[1]; treated 100 μg/M s.c., 2.5 million cells/well, activation Compound 1 25 μ/ml",262.8 pg/mL
same,Final cytokine (IFN-γ),"[1]; treated 100 μg/M s.c., 2.5 million cells/well, activation Con A",337.4 pg/mL
same,Final cytokine (IFN-γ),"[1]; treated 100 μg/M s.c., 5 million cells/well, activation Compound 1 3.125 μg/ml",90.8 pg/mL
same,Final cytokine (IFN-γ),"[1]; treated 100 μg/M s.c., 5 million cells/well, activation Compound 1 6.25 μg/ml",157.8 pg/mL
same,Final cytokine (IFN-γ),"[1]; treated 100 μg/M s.c., 5 million cells/well, activation Compound 1 12.5 μg/ml",257.1 pg/mL
same,Final cytokine (IFN-γ),"[1]; treated 100 μg/M s.c., 5 million cells/well, activation Compound 1 50 μg/ml",739.7 pg/mL
same,Final cytokine (IFN-γ),"[1]; treated 100 μg/M s.c., 5 million cells/well, activation Compound 1 100 μg/ml",995.5 pg/mL
same,Final cytokine (IFN-γ),"[1]; treated 100 μg/M s.c., 5 million cells/well, activation Compound 1 25 μ/ml",421.7 pg/mL
same,Final cytokine (IFN-γ),"[1]; treated 100 μg/M s.c., 5 million cells/well, activation Con A",10126.8 pg/mL
same,Final cytokine (IFN-γ),"[1]; treated 200 μg/M s.c., 2.5 million cells/well, activation Compound 1 3.125 μg/ml",103.9 pg/mL
same,Final cytokine (IFN-γ),"[1]; treated 200 μg/M s.c., 2.5 million cells/well, activation Compound 1 6.25 μg/ml",126.1 pg/mL
same,Final cytokine (IFN-γ),"[1]; treated 200 μg/M s.c., 2.5 million cells/well, activation Compound 1 12.5 μg/ml",129.0 pg/mL
same,Final cytokine (IFN-γ),"[1]; treated 200 μg/M s.c., 2.5 million cells/well, activation Compound 1 50 μg/ml",378.1 pg/mL
same,Final cytokine (IFN-γ),"[1]; treated 200 μg/M s.c., 2.5 million cells/well, activation Compound 1 100 μg/ml",524.1 pg/mL
same,Final cytokine (IFN-γ),"[1]; treated 200 μg/M s.c., 2.5 million cells/well, activation Compound 1 25 μ/ml",240.3 pg/mL
same,Final cytokine (IFN-γ),"[1]; treated 200 μg/M s.c., 2.5 million cells/well, activation Con A",BQL
same,Final cytokine (IFN-γ),"[1]; treated 200 μg/M s.c., 5 million cells/well, activation Compound 1 3.125 μg/ml",204.4 pg/mL
same,Final cytokine (IFN-γ),"[1]; treated 200 μg/M s.c., 5 million cells/well, activation Compound 1 6.25 μg/ml",244.1 pg/mL
same,Final cytokine (IFN-γ),"[1]; treated 200 μg/M s.c., 5 million cells/well, activation Compound 1 12.5 μg/ml",466.1 pg/mL
same,Final cytokine (IFN-γ),"[1]; treated 200 μg/M s.c., 5 million cells/well, activation Compound 1 50 μg/ml",922.5 pg/mL
same,Final cytokine (IFN-γ),"[1]; treated 200 μg/M s.c., 5 million cells/well, activation Compound 1 100 μg/ml",1006.2 pg/mL
same,Final cytokine (IFN-γ),"[1]; treated 200 μg/M s.c., 5 million cells/well, activation Compound 1 25 μ/ml",660.5 pg/mL
same,Final cytokine (IFN-γ),"[1]; treated 200 μg/M s.c., 5 million cells/well, activation Con A",7722.8 pg/mL
same,average inhibition of IFN-γ secretion,[1]; treated dose of 25 μg/mouse,95%
same,Up-Regulation of TGF-β % (patients),"[2]; PBL of SLE patients, 48 hours",100 (19/19) %
same,secretion of TGF-β,"[2]; PBL of one representative SLE patient, FIG. 13",significant up-regulation
same,Maximum Up-regulation %,[2]; percent secretion above that in the presence of 16/6 Id alone (= 100%),305 ± 221%
same,safety and tolerability,[3],safe and well tolerated
same,Mean Proteinuria ± SEM,"[4]; 25 μg/mouse s.c. once a week in Captisol®, 5 weeks following treatment initiation",0.16 ± 0.05 g/L
same,Mean Proteinuria ± SEM,"[4]; 25 μg/mouse s.c. once a week in Captisol®, 7 weeks following treatment initiation",1.26 ± 1.09 g/L
same,Mean Proteinuria ± SEM,"[4]; 25 μg/mouse s.c. once a week in Captisol®, 8 weeks following treatment initiation",0.5 ± 0.31 g/L
same,Mean Proteinuria ± SEM,"[4]; 25 μg/mouse s.c. once a week in Captisol®, 10 weeks following treatment initiation",0.56 ± 0.3 g/L
same,Mean Proteinuria ± SEM,"[4]; 50 μg/mouse s.c. once a week in Captisol®, 5 weeks following treatment initiation",0.75 ± 0.3 g/L
same,Mean Proteinuria ± SEM,"[4]; 50 μg/mouse s.c. once a week in Captisol®, 7 weeks following treatment initiation",0.81 ± 0.3 g/L
same,Mean Proteinuria ± SEM,"[4]; 50 μg/mouse s.c. once a week in Captisol®, 8 weeks following treatment initiation",1.09 ± 0.4 g/L
same,Mean Proteinuria ± SEM,"[4]; 50 μg/mouse s.c. once a week in Captisol®, 10 weeks following treatment initiation",1.29 ± 0.3 g/L
same,"ICD (Immune Complex Deposits) intensity, Mean ± SEM","[4]; 50 μg/mouse, kidneys at sacrifice, scale 0 = none, 1 = moderate, 2 = severe, 3 = severe/extremely intense",1.90 ± 0.23
same,levels of dsDNA-specific antibodies versus control,"[4]; 25 or 50 μg/mouse, after 10 treatment injections",no significant differences
same,intensity of immune complex deposits in kidney sections versus control group,"[4]; either dose level (25 or 50 μg/mouse), FIG. 6",much lower
